The text below walks through data of patent US6696458B2 (Super Gen, Inc., priority 2002, dated 2004).

For data set [1] the following is noted: solubilized by sodium hydroxide in water; cited from earlier work.
The nature of data set [2]: Dehydration/desolvation under vacuum, XRPD comparison. It counts as physicochemical. The source says:
The characterization of this weight loss as THF solvent is supported by the ^1H NMR data.

Data set [3] in a line: Moisture sorption/desorption on VTI SGA-100 moisture balance. Conditions: for hygroscopicity: judged from sorption 5 to 95% RH. It is filed as physicochemical. The source says:
The samples were not dried prior to analysis.

The subject of data set [4] is human colon cancer xenografts. The note with it: cited from earlier work.
Data set [5] in a line: Storage in closed vial at ambient conditions, XRPD comparison. It counts as physicochemical. The note with it: 31 days.

Take `CC[C@@](O)(C(=O)[O-])c1cc2n(c(=O)c1CO)Cc1cc3ccccc3nc1-2.[Na+]` [Sodium camptothecin]: the “antineoplastic activity in clinical trials” value in data set [1] is reported as “antineoplastic activity”.

For `CC[C@@]1(O)C(=O)OCc2c1cc1n(c2=O)Cc2cc3c([N+](=O)[O-])cccc3nc2-1` [Form C, 9-nitrocamptothecin], the “form change on attempted desolvation” value in data set [2] is listed as “becomes amorphous”.

With `CC[C@@]1(O)C(=O)OCc2c1cc1n(c2=O)Cc2cc3c([N+](=O)[O-])cccc3nc2-1` [Form A, 9-nitrocamptothecin], the “total weight gained in the region from 5 to 95% RH” value in data set [3] (5 to 95% RH) is given as “about 0.03%”. In addition, the Weight % chg in data set [3] (desorption, RH 4.83 %, 25.03 deg C, elapsed 157.3 min) was determined as 0.0275%; in data set [3] (desorption, RH 15.00 %, 25.03 deg C, elapsed 150.3 min) it was 0.0307%; in data set [3] (desorption, RH 24.95 %, 25.02 deg C, elapsed 143.3 min) it was 0.0324%; in data set [3] (desorption, RH 34.97 %, 25.02 deg C, elapsed 135.8 min), 0.0348%; in data set [3] (desorption, RH 45.05 %, 25.02 deg C, elapsed 127.8 min), 0.0372%; in data set [3] (desorption, RH 54.99 %, 25.02 deg C, elapsed 119.8 min), 0.0381%. Further, the Weight % chg is given as 0.0405% in data set [3] (desorption, RH 65.02 %, 25.02 deg C, elapsed 111.8 min); 0.0429% in data set [3] (desorption, RH 75.18 %, 25.03 deg C, elapsed 103.8 min); 0.0429% in data set [3] (desorption, RH 84.95 %, 25.03 deg C, elapsed 94.8 min); 0.0131% in data set [3] (sorption, RH 5.16 %, 25.02 deg C, elapsed 11.1 min); 0.0149% in data set [3] (sorption, RH 15.27 %, 25.02 deg C, elapsed 19.6 min); 0.0169% in data set [3] (sorption, RH 24.98 %, 25.03 deg C, elapsed 27.2 min). The Weight % chg is recorded as 0.0210% in data set [3] (sorption, RH 35.07 %, 25.03 deg C, elapsed 34.7 min); 0.0242% in data set [3] (sorption, RH 45.07 %, 25.03 deg C, elapsed 42.2 min); 0.0283% in data set [3] (sorption, RH 55.00 %, 25.03 deg C, elapsed 50.2 min); 0.0315% in data set [3] (sorption, RH 64.96 %, 25.03 deg C, elapsed 59.2 min); 0.0347% in data set [3] (sorption, RH 74.75 %, 25.03 deg C, elapsed 68.3 min); 0.0387% in data set [3] (sorption, RH 84.64 %, 25.03 deg C, elapsed 77.3 min). Besides, the Weight % chg in data set [3] (sorption, RH 94.90 %, 25.03 deg C, elapsed 86.3 min) was 0.0421%; in data set [3] (start, RH 14.41 %, 24.99 deg C, elapsed 0.0 min) it was 0.0000%. In addition, the “water gained upon equilibration to 5% RH” value in data set [3] (equilibration to 5% RH) was found to be 0.01%. For the same compound, the hygroscopicity entry in data set [3] is “not hygroscopic”.

Consider `CC[C@@]1(O)C(=O)OCc2c1cc1n(c2=O)Cc2cc3cc4c(cc3nc2-1)OCO4` [10,11, MD, 10,11-methylendioxy-20(S)-camptothecin], for which the anticancer activity entry in data set [4] was “high anticancer activity”.

Turning to `CC[C@@]1(O)C(=O)OCc2c1cc1n(c2=O)Cc2cc3c([N+](=O)[O-])cccc3nc2-1` [Form B, 9-nitrocamptothecin], the hygroscopicity result in data set [3] is “relatively hygroscopic”. The Weight % chg in data set [3] (start, RH 9.87 %, 25.03 deg C, elapsed 0.0 min) was 0.0000%. Besides, the “stability of crystalline form on storage (XRPD pattern unchanged)” value in data set [5] is given as “relatively stable”.

Take `CC[C@@]1(O)C(=O)OCc2c1cc1n(c2=O)Cc2cc3c(N)cccc3nc2-1` [Form 9AC, 9-Amino-20(S)-Camptothecin]: the anticancer activity entry in data set [4] is listed as “high anticancer activity”.
